# Experimental data as given in patent publication US20220168430A1, “THERAPEUTIC METHODS FOR TREATING HEPATITIS B” (priority 2019, published 2022).
# pEC50: −log10 of the molar value. Several values for one entry are separate records, joined by “and”; a condition that tells them apart may be missing. Equal values may be shown once.
# How the values were obtained:
# HBV DNA [1] = test: HBV DNA by branched DNA assay in HepG2.2.15 cells, two-compound combinations (Examples 13-14); format: cell-based, HBV; HepG2.2.15 (human hepatoblastoma); conditions: for MacSynergy Volume Calculations, 99.99% confidence interval (Bonferroni Adj. 96%) / Average percent inhibition versus negative control: Cmpd 2 μM: 0.01, 0.0032, 0.001, 0.0003, 0.0001, 0; for pEC50: Hepatitis B virus; for Average percent inhibition versus negative control: n = 4; for Additive percent inhibition versus negative control: Compound (2) μM: 0.01, 0.0032, 0.001, 0.0003, 0.0001, 0
# Method: In vitro combination studies were conducted using the method of Prichard and Shipman (Prichard M N, and Shipman C Jr., Antiviral Research, 1990, 14(4-5), 181-205; and Prichard M N, et. al., MacSynergy II). The HepG2.2.15 cell culture system is a cell line derived from human hepatoblastoma HepG2 cells, which have been stably transfected with the adw2-subtype HBV genome as previously explained in Sells et al. (Proc. Natl. Acad. Sci. U. S. A, 1987. Vol 84:1005-1009). HepG2.2.15 cells secrete Dane-like viral particles, produce HBV DNA, and produce the viral proteins, HBeAg and HBsAg.
# Although inhibition of HBV DNA, RNA and proteins can be determined in the presence of these inhibitors, we used the branched DNA assay due to its ability to quantitatively measure the level HBV DNA.
# Detection of HBV DNA. The branched DNA assay (bDNA) was used to determine the effect of compound combinations on HBV DNA. HepG2.2.15 (10,000 cells/well) were cultured in DMEM medium plus supplements as described above. The next day, the cells were replenished with fresh medium followed by the addition of Inhibitor A and B, both were dissolved in 100% DMSO. The microtiter cell plates were incubated for a total duration of 6 days at 37° C. without replenishing media or compound. The serial dilutions spanned concentration ranges respective to the EC50 value of each compound. In addition to combination testing of the compounds, both inhibitors A and B were also tested singly.
# The level of bDNA present in the inhibitor-treated supernatant wells was measured using a Quantigene 2.0 bDNA assay kit (Affymetrix, Santa Clara, Calif.) with HBV specific custom probe set (genotype D ayw; DF-10739) and manufacturer's instructions after performing a proteinase K digestion in lysis. The plates were read using a Victor luminescence plate reader (PerkinElmer Model 1420 Multilabel counter) and the RLU data generated from each well was calculated as inhibition of the untreated control wells. The data was analyzed using the interpretive guidelines established by Prichard and Shipman combination model using the MacSynergy II program (Prichard M N, Shipman C Jr. Antiviral Research, 1990. Vol 14(4-5):181-205; Prichard M N, Aseltine KR, and Shipman, C. MacSynergy II. University of Michigan 1992) to determine whether the combinations were synergistic, additive or antagonistic using the interpretive guidelines established by Prichard and Shipman as follows: synergy volumes <25 μM2% (log volume <2) at 95% CI=probably insignificant; 25-50 (log volume >2 and <5)=minor but significant 50-100 (log volume >5 and <9)=moderate, may be important in vivo; Over 100 (log volume >9)=strong synergy, probably important in vivo; volumes approaching 1000 (log volume >90)=unusually high, check data. The RLU data from the single compound treated cells were analyzed using XL-Fit module in Microsoft Excel to determine EC50 values using a 4-parameter curve fitting algorithm.
# HBV DNA [2] = test: HBV DNA in culture supernatants of HBV-infected PHH by qPCR (Examples 15-17); format: cell-based, HBV genotype D; primary human hepatocytes; conditions: Hepatitis B virus, determined in an earlier separate experiment
# HBsAg = HBsAg in culture supernatants of HBV-infected PHH by ELISA (Examples 15-17); conditions: for AVERAGE % INHIBITION: HBsAg
# Method: All the test articles were further diluted 100 times with the culture medium. The final concentration of DMSO in the culture medium was 2%.
# HBsAg in the culture supernatants harvested on days 8 was measured using the HBsAg/ELISA kit (Autobio) according to the manual. The samples were diluted 4-fold with PBS to get the signal in the range of the standard curve. Percent inhibition of HBsAg was calculated with the following formula:
# % Inh. HBsAg=[1−HBsAg quantity of sample/HBV quantity of DMSO control]×100
# HBV DNA [3] = test: HBV DNA in culture supernatants of HBV-infected PHH by qPCR (Examples 15-17); format: cell-based, HBV genotype D; primary human hepatocytes; conditions: HBV DNA
# Method: The day PHH seeding date was defined as day 0.
# The PHH were infected with 400 HBV GE/cell of D type HBV on day 1.
# The test articles were further diluted with the culture medium to the final test concentrations.
# All the test articles were further diluted 100 times with the culture medium. The final concentration of DMSO in the culture medium was […].
# Four two-way combinations were performed on a 5×5 matrix, in triplicate plates. Transfection reagent was present in all wells.
# DNA in the culture supernatants harvested on days 8 was isolated with QIAamp 96 DNA Blood Kit (Qiagen-51162). For each sample, 100 μl of each culture supernatant was used to extract DNA. The DNA was eluted with 180 μl of AE. HBV DNA in the culture supernatants was quantified by quatitative PCR using well-established and commonly used procedures. Percent inhibition of HBV DNA was calculated with the formula below:
# % Inh. HBV DNA=[1−value of sample/AVG. value of Medium control]×100.
# Results of double combination studies were analyzed using MacSynergy II software (Prichard and Shipman, 1992).
smiles,measurement,setting,value
COCCCOc1cc2c(nc1OC)-c1cc(=O)c(C(=O)O)cn1[C@H](C(C)C)C2 [Compound 2],"MacSynergy Volume Calculations, 99.99% confidence interval (Bonferroni Adj. 96%)",HBV DNA [1]; ETV 0 μM,0.00
same,pEC50,"HBV DNA [1]; HepG2.2.15, HepG2.2.15, bDNA quantitation, study with ETV as Inhibitor A, read-out: Inhibitor B EC50",9.05
same,pEC50,"HBV DNA [1]; HepG2.2.15, HepG2.2.15, bDNA quantitation, study with TAF as Inhibitor A, read-out: Inhibitor B EC50",9.22
same,"MacSynergy Volume Calculations, 99.99% confidence interval (Bonferroni Adj. 96%)",HBV DNA [1]; TAF 0 μM,0
"CC(C)OC(=O)[C@H](C)N[P@](=O)(CO[C@H](C)Cn1cnc2c(N)ncnc21)Oc1ccccc1 [TAF, tenofovir alafenamide]",pEC50,"HBV DNA [1]; HepG2.2.15, read-out: Inhibitor A EC50",7.27
same,"MacSynergy Volume Calculations, 99.99% confidence interval (Bonferroni Adj. 96%)",HBV DNA [1]; TAF 0.0002 μM,0
same,Average percent inhibition versus negative control,HBV DNA [1]; TAF 0.0002 μM,8.88%
same,Additive percent inhibition versus negative control,HBV DNA [1]; TAF 0.0002 μM,8.88%
same,"MacSynergy Volume Calculations, 99.99% confidence interval (Bonferroni Adj. 96%)",HBV DNA [1]; TAF 0.0006 μM,0
same,Average percent inhibition versus negative control,HBV DNA [1]; TAF 0.0006 μM,12.91%
same,Additive percent inhibition versus negative control,HBV DNA [1]; TAF 0.0006 μM,12.91%
same,"MacSynergy Volume Calculations, 99.99% confidence interval (Bonferroni Adj. 96%)",HBV DNA [1]; TAF 0.0020 μM,0
same,Average percent inhibition versus negative control,HBV DNA [1]; TAF 0.0020 μM,14.28%
same,Additive percent inhibition versus negative control,HBV DNA [1]; TAF 0.0020 μM,14.28%
same,"MacSynergy Volume Calculations, 99.99% confidence interval (Bonferroni Adj. 96%)",HBV DNA [1]; TAF 0.0064 μM,0
same,Average percent inhibition versus negative control,HBV DNA [1]; TAF 0.0064 μM,19.87%
same,Additive percent inhibition versus negative control,HBV DNA [1]; TAF 0.0064 μM,19.87%
same,"MacSynergy Volume Calculations, 99.99% confidence interval (Bonferroni Adj. 96%)",HBV DNA [1]; TAF 0.0201 μM,0
same,Average percent inhibition versus negative control,HBV DNA [1]; TAF 0.0201 μM,25.36%
same,Additive percent inhibition versus negative control,HBV DNA [1]; TAF 0.0201 μM,25.36%
same,"MacSynergy Volume Calculations, 99.99% confidence interval (Bonferroni Adj. 96%)",HBV DNA [1]; TAF 0.0634 μM,0
same,Average percent inhibition versus negative control,HBV DNA [1]; TAF 0.0634 μM,42.96%
same,Additive percent inhibition versus negative control,HBV DNA [1]; TAF 0.0634 μM,42.96%
same,"MacSynergy Volume Calculations, 99.99% confidence interval (Bonferroni Adj. 96%)",HBV DNA [1]; TAF 0.2002 μM,0
same,Average percent inhibition versus negative control,HBV DNA [1]; TAF 0.2002 μM,62.7%
same,Additive percent inhibition versus negative control,HBV DNA [1]; TAF 0.2002 μM,62.7%
same,"MacSynergy Volume Calculations, 99.99% confidence interval (Bonferroni Adj. 96%)",HBV DNA [1]; TAF 0.6329 μM,0
same,Average percent inhibition versus negative control,HBV DNA [1]; TAF 0.6329 μM,76.45%
same,Additive percent inhibition versus negative control,HBV DNA [1]; TAF 0.6329 μM,76.45%
same,"MacSynergy Volume Calculations, 99.99% confidence interval (Bonferroni Adj. 96%)",HBV DNA [1]; TAF 2.0 μM,0
same,Average percent inhibition versus negative control,HBV DNA [1]; TAF 2.0 μM,87.21%
same,Additive percent inhibition versus negative control,HBV DNA [1]; TAF 2.0 μM,87.21%
"CC(C)OC(=O)OCOP(=O)(CO[C@H](C)Cn1cnc2c(N)ncnc21)OCOC(=O)OC(C)C.O=C(O)/C=C/C(=O)O [TDF, tenofovir disoproxil fumarate, reference compound]",pEC50,HBV DNA [2],9.38
same,AVERAGE % INHIBITION,HBsAg; TDF 0.12 nM alone,−1.47% and −10.84%
same,AVERAGE % INHIBITION,HBsAg; TDF 0.37 nM alone,−1.3% and −9.3%
same,pEC50,HBsAg; Hepatitis B virus,< 8.00
same,AVERAGE % INHIBITION,HBV DNA [3]; TDF 0.12 nM alone,22.22%
same,AVERAGE % INHIBITION,HBV DNA [3]; TDF 10.0 nM alone,92.76%
same,inhibition at 0.00012 µM,"HBV DNA [3]; Hepatitis B virus, TDF 0.12 nM alone",36.1%
same,inhibition at 0.00037 µM,"HBV DNA [3]; Hepatitis B virus, TDF 0.37 nM alone",44.6%
same,inhibition at 0.01 µM,"HBV DNA [3]; Hepatitis B virus, TDF 10.0 nM alone",92.5%
